{"source": "patent US20260158172A1", "about": "“CELL DEATH METHOD USING CRISPR/CAS SYSTEM HAVING SINGLE-STRAND BREAK ACTIVITY AND PARP INHIBITOR” (INSTITUTE FOR BASIC SCIENCE, priority 2023, published 2026)", "format_in_all_cases": "cell-based", "key": {"HeLa cells [1]": {"tested_on": "HeLa cells", "experiment": "Cell viability (CellTiter-Glo), Experimental Example 2: CRISPR/nCas composition for cell death with or without olaparib", "details": "relative cell viability, sgRNA delivered as nCas9 D10A RNP, Mock = no guide RNA", "description": "(§1) A total of 0.5×10^4 cells were mixed with 1 μM olaparib (AZD2281) (Selleckchem, #S1060), 1 μM rucaparib (Selleckchem, #S4948), 0.1 μM niraparib (MK-4827) (Selleckchem, #S2741), 2 μM veliparib (ABT-888) (Selleckchem, #S1004), or 10 µM iniparib (BSI-201) (Selleckchem, #S1087), and seeded onto 24-well plates.\n(§2) To transfect RNPs, cells were transfected with 665 ng of the Cas protein of each Embodiment and 95 ng of the sgRNA of each Embodiment using a Lipofectamine CRISPRMAX Cas9 Transfection Reagent (Invitrogen, #CMAX00015), and then cultured for 3 days. When treated together with a PARP inhibitor, the PARP inhibitor was treated according to Experimental Example 1.6, and the RNPs were treated one day thereafter.\n(§3) Cell viability was measured using a CellTiter-Glo Luminescent Cell Viability Assay (Promega, #G7571). After the transfected cells were cultured for 3 days, the cells were detached using Trypsin-EDTA (0.25%) (Gibco, #25200056). The cells were diluted in 400 μL of DMEM, followed by dispensing 100 μL of the cells, mixed with 100 μL of the CellTiter-Glo Reagent, and then incubated at room temperature for 10 minutes. Luminescence signals were measured using an Infinite 200 (Tecan) in a white opaque 96-well plate (Corning, #3917).\n(§4) To evaluate the cell death effects of a CRISPR/nCas composition for cell death and a PARP inhibitor, the following experiment was conducted. Specifically, Hela cells and HCT-116 cells cultured according to Experimental Example 1.1 were treated with a PARP inhibitor (olaparib) and a CRISPR/nCas composition for cell death having the compositions shown in the following table.\n(§5) The nCas protein used in this experiment was prepared according to Experimental Example 1.2, and the sgRNA used was prepared according to Experimental Example 1.3. The nCas protein and the sgRNA were administered to the cells in the form of RNPs according to Experimental Example 1.7. In the case of the PARP inhibitor, the concentrations disclosed in the above table were applied to each cell according to Experimental Example 1.6.\n(§6) Thereafter, cell viability was measured according to Experimental Example 1.8."}, "HCT-116 cells [2]": {"tested_on": "HCT-116 cells", "experiment": "Cell viability (CellTiter-Glo), Experimental Example 2: CRISPR/nCas composition for cell death with or without olaparib", "details": "relative cell viability, HCT-116, Olaparib (+): olaparib 1 μM, sgRNA delivered as nCas9 D10A RNP, Mock = no guide RNA", "description": "as §1, §2, §3, §4, §5, §6"}, "HeLa cells [3]": {"tested_on": "HeLa cells", "experiment": "Cell viability (CellTiter-Glo), Experimental Example 5: type of PARP inhibitor", "details": "olaparib 1 μM, rucaparib 1 μM, niraparib 0.1 μM, veliparib 2 μM", "description": "as §1, §2, §3\n(§7) Specifically, Hela cells and HCT-116 cells cultured according to Experimental Example 1.1 were treated with a PARP inhibitor and a CRISPR/nCas composition for cell death having the compositions shown in the following table.\n(§8) For each RNP composition of the embodiment using nCas9^D10A, one PARP inhibitor selected from olaparib, rucaparib, niraparib, veliparib, and iniparib was co-administered. DMSO was used as a control.\n(§9) The Cas protein and the nCas protein used in this experiment were prepared according to Experimental Example 1.2, and the sgRNA used was prepared according to Experimental Example 1.3. The nCas protein and the sgRNA were administered to the cells in the form of RNPs according to Experimental Example 1.7. The cells were each treated with the respective PARP inhibitors at the concentrations disclosed in Experimental Example 1.6 using the materials disclosed in the above table.\nas §6"}, "HCT-116 cells [4]": {"tested_on": "HCT-116 cells", "experiment": "Cell viability (CellTiter-Glo), Experimental Example 5: type of PARP inhibitor", "details": "olaparib 1 μM, rucaparib 1 μM, niraparib 0.1 μM, veliparib 2 μM", "description": "as §1, §2, §3, §7, §8, §9, §6"}, "HeLa cells [5]": {"tested_on": "HeLa cells", "experiment": "Cell viability (CellTiter-Glo), Experimental Example 4: dependence on olaparib concentration", "details": "nCas9 D10A RNP or siRNA co-treatment, Non-treated (label Olaparib) = PARP inhibitor only", "description": "as §2\n(§10) To compare cell death effects depending on the concentration of a PARP inhibitor administered, the following experiment was performed. Specifically, Hela cells and HCT-116 cells cultured according to Experimental Example 1.1 were treated with a PARP inhibitor (olaparib) and a CRISPR/nCas composition for cell death having the compositions shown in the following table.\n(§11) For each labeled material, experiments were conducted while varying the concentration of olaparib.\n(§12) Here, in the case of siRNA, an siRNA having the sequence […] (SEQ ID NO: 40) was used, and 20 pmole thereof was delivered to the cells according to Experimental Example 1.7. After the experiment, cell viability was measured according to Experimental Example 1.8."}, "HCT-116 cells [6]": {"tested_on": "HCT-116 cells", "experiment": "Cell viability (CellTiter-Glo), Experimental Example 4: dependence on olaparib concentration", "details": "nCas9 D10A RNP or siRNA co-treatment, Non-treated (label Olaparib) = PARP inhibitor only", "description": "as §2, §10, §11, §12"}, "[7]": {"details": "PARP inhibitor with nCas9^D10A, Target = Mock (PBS instead of sgRNA)"}, "[8]": {"details": "drug_only (no Cas protein, no guide RNA)"}, "[9]": {"details": "olaparib 10 μM, listed as olaparib"}}}
{"smiles": "O=C(c1cc(Cc2n[nH]c(=O)c3ccccc23)ccc1F)N1CCN(C(=O)C2CC2)CC1", "note": "[Olaparib, olaparib]", "values": [{"measurement": "Rep 1 (rel)", "setting": "HeLa cells [1]; Olaparib (+): olaparib 1 μM", "result": 1.163}, {"measurement": "Rep 2 (rel)", "setting": "HeLa cells [1]; Olaparib (+): olaparib 1 μM", "result": 0.967}, {"measurement": "Rep 3 (rel)", "setting": "HeLa cells [1]; Olaparib (+): olaparib 1 μM", "result": 1.02}, {"measurement": "Average", "setting": "HeLa cells [1]; average of Rep 1-3, Olaparib (+): olaparib 1 μM", "result": 1.05}, {"measurement": "Average", "setting": "HCT-116 cells [2]; average of Rep 1-3", "result": 1.05}, {"measurement": "Rep 1 (rel)", "setting": "HCT-116 cells [2]", "result": 0.9889}, {"measurement": "Rep 2 (rel)", "setting": "HCT-116 cells [2]", "result": 1.027}, {"measurement": "Rep 3 (rel)", "setting": "HCT-116 cells [2]", "result": 1.131}, {"measurement": "Relative cell viability (average, n = 3)", "setting": "HeLa cells [3]; [7]", "result": 0.9135}, {"measurement": "Relative cell viability (average, n = 3)", "setting": "HeLa cells [3]; [8]", "result": 0.8856}, {"measurement": "Relative cell viability (average, n = 3)", "setting": "HCT-116 cells [4]; [7]", "result": 1.0164}, {"measurement": "Relative cell viability (average, n = 3)", "setting": "HCT-116 cells [4]; [8]", "result": 1.1219}, {"measurement": "Relative cell viability (average, n = 3)", "setting": "HeLa cells [5]; olaparib 0.0001 μM", "result": 1.0000}, {"measurement": "Relative cell viability (average, n = 3)", "setting": "HeLa cells [5]; olaparib 0.001 μM", "result": 0.9810}, {"measurement": "Relative cell viability (average, n = 3)", "setting": "HeLa cells [5]; olaparib 0.01 μM", "result": 0.9959}, {"measurement": "Relative cell viability (average, n = 3)", "setting": "HeLa cells [5]; olaparib 0.1 μM", "result": 0.9391}, {"measurement": "Relative cell viability (average, n = 3)", "setting": "HeLa cells [5]; olaparib 1 μM", "result": 0.9279}, {"measurement": "Relative cell viability (average, n = 3)", "setting": "HeLa cells [5]; olaparib 10 μM", "result": 0.1192}, {"measurement": "Relative cell viability (average, n = 3)", "setting": "HeLa cells [5]; [9]", "result": "exhibits cytotoxicity"}, {"measurement": "Relative cell viability (average, n = 3)", "setting": "HCT-116 cells [6]; olaparib 0.0001 μM", "result": 1.0000}, {"measurement": "Relative cell viability (average, n = 3)", "setting": "HCT-116 cells [6]; olaparib 0.001 μM", "result": 0.9939}, {"measurement": "Relative cell viability (average, n = 3)", "setting": "HCT-116 cells [6]; olaparib 0.01 μM", "result": 0.9743}, {"measurement": "Relative cell viability (average, n = 3)", "setting": "HCT-116 cells [6]; olaparib 0.1 μM", "result": 1.0072}, {"measurement": "Relative cell viability (average, n = 3)", "setting": "HCT-116 cells [6]; olaparib 1 μM", "result": 1.0307}, {"measurement": "Relative cell viability (average, n = 3)", "setting": "HCT-116 cells [6]; olaparib 10 μM", "result": 0.7979}, {"measurement": "Relative cell viability (average, n = 3)", "setting": "HCT-116 cells [6]; [9]", "result": "exhibits cytotoxicity"}]}
